{
  "source": "patent US11504394B2",
  "about": "“Targeted ionophore-based metal delivery” (The Regents of the University of California, priority 2018, dated 2022)",
  "key": {"[1]": {"assay": "Stability in aqueous solutions at different pH (UV-vis)", "assay_type": "physicochemical", "conditions": "pH=3 to 8", "procedure": "All spectroscopic measurements were performed in 20 mM PBS, pH 7.4 unless otherwise indicated. Absorption spectra were acquired on a Varian Cary 50 spectrophotometer."}, "HEK 293T cells": {"system": "HEK 293T cells", "assay": "Cell viability, propidium iodide staining, HEK 293T", "assay_type": "cell-based", "conditions": "500 μM dose, three hours", "procedure": "Flow cytometry experiments were performed with BD LSR Fortessa Cell Analyzer in the College of Chemistry at UC Berkeley. Gains were set to include live cells based on viability experiments using propidium iodide, with dead cells via 0.1% saponin treatment as a negative control. The standard PE-A (570 nm longpass, 586/15 nm bandpass) was used. For each biological replicate, three technical replicates of 5,000 (HepG2) or 10,000 cells (HEK 293T) were counted. Flow cytometry data was processed using FlowJo (FlowJo, LLC).\nHEK 293T cells were plated in 6-well plates at 60-80% confluency. After ionophore treatment at the given concentration for three hours, cells were washed with DMEM and incubated with 3 μM propidium iodide in PBS for 15 minutes, then rinsed in PBS. HEK 293T cells were mechanically removed via pipetting off the plate with 1 mL PBS and filtered through a 35 μm nylon mesh into 5 mL culture tubes for analysis. HepG2 cells were plated in 12-well plates at 60-80% confluency. […]"}, "labile Cu^+ pool": {"system": "labile Cu^+ pool", "assay": "In vivo bioluminescence imaging with CCL-1 / D-Luc, liver region", "parameters": "species or system FVB-luc^+ mice", "conditions": "24 hours after ionophore, 0.75 mg Cu/kg i.p.", "procedure": "A Xenogen IVIS Spectrum instrument (Caliper Life Sciences) was used for bioluminescence imaging in all animal experiments, and image analysis was performed using the Living Image software. The total photon flux for each animal was determined by drawing a region of interest around the liver and integrating photon flux over the total imaging period (area under the curve). We selected our liver region of interest based on comparing the bioluminescence data in vivo and ex vivo, as described in our previous studies with the CCL-1 probe.^27 The same region of interest around the liver was applied to analyzing both the CCL-1 and D-Luc data. The data plotted in FIG. 8A represents the ratio of CCL-1 integrated photon flux to basal D-luc integrated photon flux. Mice were anesthetized prior to injection and during imaging via inhalation of isoflurane. Isoflurane was purchased from Phoenix Pharmaceuticals, Inc. DMSO was purchased from Sigma-Aldrich, Dulbecco's phosphate buffered saline was purchased from Gibco, and medical-grade oxygen was purchased from Praxair.\nFVB-luc+ mice were given intraperitoneal (i.p.) injections of vehicle (50 μL 1:1 DMSO:DPBS), 3.46 mg/kg Cu(gtsm), or 7.26 mg/kg Gal-Cu(gtsm) under anesthesia with isoflurane. The ionophore concentrations were chosen to give an equivalent copper dose of 0.75 mg Cu/kg mouse at 0.6 mg Cu/mL vehicle. […]"}, "liver tissue": {"system": "liver tissue", "assay": "Liver tissue histology, H&E staining", "assay_type": "in vivo", "procedure": "FVB-luc+ mice were injected i.p. with vehicle (50 μL 1:1 DMSO:DPBS), Cu(gtsm), or Gal-Cu(gtsm) at a 0.75 mg Cu/kg mouse dose. After six hours, mice were euthanized with CO2 asphyxiation followed by cervical dislocation and liver tissue was extracted. Liver sections were fixed in a 10% formalin in PBS solution and sent to Histowiz Inc. (Brooklyn, N.Y.) for further processing and hematoxylin & eosin staining."}, "[2]": {"system": "alanine transaminase (ALT) activity", "assay": "Serum alanine transaminase (ALT) assay", "assay_type": "in vivo, mice", "conditions": "6 hours, 0.75 mg Cu/kg", "procedure": "Mice were immediately euthanized by cervical dislocation.\nLiver lysate (TBARS Assay via TCA Method, Cayman Chemical) and serum (BUN Assay, Invitrogen; ALT Assay, Cayman Chemical) samples were processed according to manufacturer instructions; sample concentration was selected based on initial dilution screening to fall within linear range of the standard curve. All samples were analyzed in triplicate."}, "[3]": {"system": "mouse model for non-alcoholic fatty liver disease", "assay": "High fat diet mouse model for non-alcoholic fatty liver disease", "assay_type": "in vivo, mice", "procedure": "The potential of Gal-Cu(gtsm) in the treatment of non-alcoholic fatty liver disease (NFALD) was assessed in a mouse model. Mice were subjected to a high fat diet."}, "SOD": {"system": "SOD", "assay": "SOD assay in high fat diet mice", "assay_type": "in vivo", "conditions": "vs untreated HFD mice"}},
  "data": [
    {"smiles": "CNC1=N[N+]2=CC=[N+]3N=C(NCCOCCOCCOC4OC(CO)C(O)C(O)C4NC(C)=O)[S][Cu-2]23[S]1", "note": "(centres unmarked) [Gal-Cu(gtsm)]", "values": [
      {"measurement": "stability of complex in aqueous buffers", "setting": "[1]", "value": "stable"},
      {"measurement": "ionophore toxicity (cell viability)", "setting": "HEK 293T cells", "value": "non-toxic"},
      {"measurement": "bioluminescent CCL-1/D-luc liver signal", "setting": "labile Cu^+ pool", "value": "returns to basal levels"},
      {"measurement": "toxicity as indicated by liver histology and toxicity assays", "setting": "liver tissue; 0.75 mg Cu/kg i.p.", "value": "non-toxic"},
      {"measurement": "H&E liver histology", "setting": "liver tissue; 6 hours, 0.75 mg Cu/kg mouse", "value": "largely resemble those of the vehicle-treated control mice"},
      {"measurement": "serum ALT levels compared to vehicle control", "setting": "[2]", "value": "virtually the same"},
      {"measurement": "tissue copper content (ICP-MS)", "setting": "[3]", "value": "restores copper homeostasis"},
      {"measurement": "glucose tolerance test", "setting": "[3]; vs untreated HFD mice", "value": "improved metabolism"},
      {"measurement": "liver steatosis and fattiness", "setting": "[3]; vs untreated HFD mice", "value": "significantly reduced"},
      {"measurement": "serum ALT assay", "setting": "[3]; vs untreated HFD mice", "value": "rescued liver health"},
      {"measurement": "SOD assay, anti-oxidant activity", "setting": "SOD", "value": "improved anti-oxidant activity"}
    ]}
  ]
}
